From ChEMBL document CHEMBL5291721, “A preclinical secondary pharmacology resource illuminates target-adverse drug reaction associations of marketed drugs” (Nat Commun, 2023)

Experiments:
[1] = biological target: T1, Alpha-1A adrenergic receptor (Homo sapiens, UniProt P35348); format: functional, cell-based
T1 sequence (P35348 whole entry): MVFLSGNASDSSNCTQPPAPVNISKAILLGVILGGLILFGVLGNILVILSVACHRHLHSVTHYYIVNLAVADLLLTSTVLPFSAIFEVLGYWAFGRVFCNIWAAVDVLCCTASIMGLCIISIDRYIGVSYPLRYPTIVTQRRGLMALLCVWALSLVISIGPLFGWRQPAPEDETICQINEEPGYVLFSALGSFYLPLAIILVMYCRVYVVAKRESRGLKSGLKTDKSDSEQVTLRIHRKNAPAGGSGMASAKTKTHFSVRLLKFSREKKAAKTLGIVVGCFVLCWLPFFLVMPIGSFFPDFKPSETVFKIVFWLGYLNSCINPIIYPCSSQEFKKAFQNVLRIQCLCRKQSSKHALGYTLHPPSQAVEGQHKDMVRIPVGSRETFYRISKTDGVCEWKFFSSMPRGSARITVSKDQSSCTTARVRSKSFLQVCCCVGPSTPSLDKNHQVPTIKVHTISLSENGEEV

[2] = biological target: T2, Type-1 angiotensin II receptor (Homo sapiens, UniProt P30556)
T2 sequence (P30556 whole entry): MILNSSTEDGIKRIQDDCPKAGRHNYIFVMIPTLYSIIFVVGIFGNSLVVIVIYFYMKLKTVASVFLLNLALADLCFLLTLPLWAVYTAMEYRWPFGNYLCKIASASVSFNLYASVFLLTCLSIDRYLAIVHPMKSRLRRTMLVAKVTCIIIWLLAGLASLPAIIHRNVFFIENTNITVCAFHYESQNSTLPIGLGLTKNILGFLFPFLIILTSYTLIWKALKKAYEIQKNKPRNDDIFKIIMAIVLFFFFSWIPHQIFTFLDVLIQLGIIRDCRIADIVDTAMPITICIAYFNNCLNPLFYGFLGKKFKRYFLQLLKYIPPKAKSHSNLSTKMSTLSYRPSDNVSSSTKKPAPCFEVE

[3] = biological target: Voltage-dependent N-type calcium channel subunit alpha-1B (Rattus norvegicus, UniProt Q02294); format: functional
Sequence of Voltage-dependent N-type calcium channel subunit alpha-1B (Q02294 whole entry): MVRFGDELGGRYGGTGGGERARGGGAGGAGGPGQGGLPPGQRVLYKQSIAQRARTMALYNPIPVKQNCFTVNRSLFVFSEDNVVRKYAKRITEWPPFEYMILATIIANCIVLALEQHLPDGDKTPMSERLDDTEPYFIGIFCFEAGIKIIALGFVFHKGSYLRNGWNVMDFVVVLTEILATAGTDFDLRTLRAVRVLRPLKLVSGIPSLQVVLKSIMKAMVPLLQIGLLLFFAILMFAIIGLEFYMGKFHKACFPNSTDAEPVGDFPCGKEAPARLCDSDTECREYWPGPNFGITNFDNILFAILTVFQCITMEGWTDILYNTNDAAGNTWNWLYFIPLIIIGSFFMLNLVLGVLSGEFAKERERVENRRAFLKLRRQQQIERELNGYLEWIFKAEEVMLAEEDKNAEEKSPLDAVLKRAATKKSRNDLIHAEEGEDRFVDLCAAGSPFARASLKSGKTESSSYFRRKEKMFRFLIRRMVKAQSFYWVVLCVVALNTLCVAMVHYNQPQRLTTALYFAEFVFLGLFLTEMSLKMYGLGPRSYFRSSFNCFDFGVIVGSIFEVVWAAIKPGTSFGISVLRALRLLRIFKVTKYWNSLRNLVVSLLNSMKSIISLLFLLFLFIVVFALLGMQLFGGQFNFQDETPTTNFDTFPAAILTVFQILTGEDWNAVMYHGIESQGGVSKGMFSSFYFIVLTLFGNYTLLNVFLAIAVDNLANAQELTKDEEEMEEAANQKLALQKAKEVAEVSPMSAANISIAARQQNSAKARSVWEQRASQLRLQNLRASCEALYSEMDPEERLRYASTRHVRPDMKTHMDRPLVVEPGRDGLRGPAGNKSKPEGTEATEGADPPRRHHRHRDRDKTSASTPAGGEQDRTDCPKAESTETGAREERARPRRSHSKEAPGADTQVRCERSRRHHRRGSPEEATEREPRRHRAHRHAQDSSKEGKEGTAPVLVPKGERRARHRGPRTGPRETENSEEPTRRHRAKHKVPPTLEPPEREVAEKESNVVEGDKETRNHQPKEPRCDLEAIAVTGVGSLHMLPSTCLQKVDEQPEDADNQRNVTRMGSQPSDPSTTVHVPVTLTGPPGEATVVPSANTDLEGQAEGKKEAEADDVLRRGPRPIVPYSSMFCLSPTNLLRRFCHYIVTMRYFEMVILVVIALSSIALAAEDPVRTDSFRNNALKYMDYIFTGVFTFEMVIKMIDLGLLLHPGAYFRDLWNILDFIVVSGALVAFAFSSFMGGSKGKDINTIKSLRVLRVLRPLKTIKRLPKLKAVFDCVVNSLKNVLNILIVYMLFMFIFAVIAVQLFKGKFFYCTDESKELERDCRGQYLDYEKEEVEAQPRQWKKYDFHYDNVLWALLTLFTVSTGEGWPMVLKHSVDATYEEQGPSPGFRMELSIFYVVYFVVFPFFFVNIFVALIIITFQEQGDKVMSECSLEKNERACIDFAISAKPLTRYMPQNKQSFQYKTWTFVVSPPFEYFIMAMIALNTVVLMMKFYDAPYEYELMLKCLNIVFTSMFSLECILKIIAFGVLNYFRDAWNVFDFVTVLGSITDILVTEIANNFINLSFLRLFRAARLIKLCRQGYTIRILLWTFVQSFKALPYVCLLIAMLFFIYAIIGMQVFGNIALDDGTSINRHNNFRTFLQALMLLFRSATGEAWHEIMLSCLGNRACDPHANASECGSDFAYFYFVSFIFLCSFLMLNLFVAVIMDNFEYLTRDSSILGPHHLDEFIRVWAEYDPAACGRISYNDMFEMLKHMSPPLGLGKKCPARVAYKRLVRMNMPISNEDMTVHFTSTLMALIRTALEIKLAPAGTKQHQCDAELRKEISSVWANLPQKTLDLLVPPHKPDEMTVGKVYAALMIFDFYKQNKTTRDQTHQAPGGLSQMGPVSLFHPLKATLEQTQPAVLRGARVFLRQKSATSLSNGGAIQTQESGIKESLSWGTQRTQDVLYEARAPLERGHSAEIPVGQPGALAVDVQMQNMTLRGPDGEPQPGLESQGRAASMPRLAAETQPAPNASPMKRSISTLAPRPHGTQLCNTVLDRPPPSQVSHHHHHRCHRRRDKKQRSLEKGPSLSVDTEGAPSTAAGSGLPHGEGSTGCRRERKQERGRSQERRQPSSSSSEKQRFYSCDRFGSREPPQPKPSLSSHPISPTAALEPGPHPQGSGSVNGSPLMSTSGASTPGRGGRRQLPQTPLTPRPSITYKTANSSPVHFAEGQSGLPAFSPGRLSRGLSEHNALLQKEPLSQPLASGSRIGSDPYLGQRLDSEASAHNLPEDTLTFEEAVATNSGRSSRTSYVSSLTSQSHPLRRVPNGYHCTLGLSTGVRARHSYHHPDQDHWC

[4] = biological target: T3, Muscarinic acetylcholine receptor M2 (Homo sapiens, UniProt P08172); format: functional, cell-based
T3 sequence (P08172 whole entry): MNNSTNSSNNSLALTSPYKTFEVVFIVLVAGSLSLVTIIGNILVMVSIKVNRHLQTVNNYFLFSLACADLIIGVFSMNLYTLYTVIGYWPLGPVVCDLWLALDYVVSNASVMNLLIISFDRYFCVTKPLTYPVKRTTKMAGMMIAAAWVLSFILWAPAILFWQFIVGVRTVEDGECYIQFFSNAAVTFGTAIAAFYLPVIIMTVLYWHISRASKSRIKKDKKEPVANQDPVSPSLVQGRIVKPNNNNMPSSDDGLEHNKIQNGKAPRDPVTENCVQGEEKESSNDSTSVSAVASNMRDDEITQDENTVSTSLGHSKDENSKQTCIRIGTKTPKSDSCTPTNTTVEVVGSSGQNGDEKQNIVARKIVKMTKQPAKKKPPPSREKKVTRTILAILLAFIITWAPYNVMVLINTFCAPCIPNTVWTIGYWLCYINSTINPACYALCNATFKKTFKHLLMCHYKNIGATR

[5] = biological target: Muscarinic acetylcholine receptor M3 (Homo sapiens, UniProt P20309)
Sequence of Muscarinic acetylcholine receptor M3 (P20309 whole entry): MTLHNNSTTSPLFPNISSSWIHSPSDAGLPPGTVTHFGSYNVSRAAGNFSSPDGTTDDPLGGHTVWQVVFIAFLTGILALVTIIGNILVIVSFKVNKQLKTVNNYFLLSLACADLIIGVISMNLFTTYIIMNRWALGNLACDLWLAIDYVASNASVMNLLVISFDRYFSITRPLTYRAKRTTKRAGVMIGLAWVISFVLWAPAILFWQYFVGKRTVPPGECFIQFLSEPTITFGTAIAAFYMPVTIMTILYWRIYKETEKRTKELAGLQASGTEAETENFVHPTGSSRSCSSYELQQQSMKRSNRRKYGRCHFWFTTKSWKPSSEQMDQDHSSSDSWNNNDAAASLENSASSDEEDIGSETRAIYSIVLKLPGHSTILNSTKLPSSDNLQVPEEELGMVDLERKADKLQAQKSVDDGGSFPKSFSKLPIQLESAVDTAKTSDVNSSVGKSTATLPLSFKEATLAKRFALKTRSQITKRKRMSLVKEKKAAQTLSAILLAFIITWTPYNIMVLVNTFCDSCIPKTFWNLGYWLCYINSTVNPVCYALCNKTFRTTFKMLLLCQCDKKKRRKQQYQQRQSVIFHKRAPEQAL

Cannabinoid receptor 1 [6] = biological target: T4, Cannabinoid receptor 1 (Homo sapiens, UniProt P21554); format: functional, cell-based
Cannabinoid receptor 1 [7] = biological target: T4, Cannabinoid receptor 1
Estrogen receptor beta = Estrogen receptor beta (Homo sapiens, UniProt Q92731)
Sequence of Estrogen receptor beta (Q92731 whole entry): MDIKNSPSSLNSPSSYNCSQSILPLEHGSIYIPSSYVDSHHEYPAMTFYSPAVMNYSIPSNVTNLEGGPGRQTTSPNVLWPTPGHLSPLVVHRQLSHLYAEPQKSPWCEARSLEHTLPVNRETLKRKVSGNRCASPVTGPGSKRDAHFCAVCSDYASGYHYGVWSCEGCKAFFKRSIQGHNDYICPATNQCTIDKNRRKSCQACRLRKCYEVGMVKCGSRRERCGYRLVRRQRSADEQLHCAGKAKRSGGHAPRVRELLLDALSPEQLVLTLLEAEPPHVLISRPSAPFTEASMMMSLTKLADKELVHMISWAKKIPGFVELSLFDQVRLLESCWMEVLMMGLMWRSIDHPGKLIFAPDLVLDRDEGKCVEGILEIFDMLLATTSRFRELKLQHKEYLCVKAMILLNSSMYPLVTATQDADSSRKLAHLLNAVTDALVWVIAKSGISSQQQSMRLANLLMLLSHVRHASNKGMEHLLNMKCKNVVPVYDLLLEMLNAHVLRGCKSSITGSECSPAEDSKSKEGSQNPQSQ

[8] = biological target: Glutamate receptor ionotropic, NMDA 1 (Rattus norvegicus, UniProt P35439)
[9] = biological target: T5, 5-hydroxytryptamine receptor 1A (Homo sapiens, UniProt P08908); format: functional, cell-based
T5 sequence (P08908 whole entry): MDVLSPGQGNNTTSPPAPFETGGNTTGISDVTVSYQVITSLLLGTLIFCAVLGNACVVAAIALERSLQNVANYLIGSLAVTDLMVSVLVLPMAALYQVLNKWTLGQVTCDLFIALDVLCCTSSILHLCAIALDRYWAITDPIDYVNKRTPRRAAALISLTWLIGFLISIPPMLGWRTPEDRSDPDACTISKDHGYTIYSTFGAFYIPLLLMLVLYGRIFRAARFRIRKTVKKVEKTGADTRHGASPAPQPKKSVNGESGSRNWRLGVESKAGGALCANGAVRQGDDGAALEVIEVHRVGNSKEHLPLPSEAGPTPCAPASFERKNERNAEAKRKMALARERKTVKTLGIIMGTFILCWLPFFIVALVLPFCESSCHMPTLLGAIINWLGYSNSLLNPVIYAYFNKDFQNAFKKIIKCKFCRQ

[10] = biological target: T5, 5-hydroxytryptamine receptor 1A; format: functional, cell-based; remark: listed apart in the source
[11] = biological target: 5-hydroxytryptamine receptor 2A (Homo sapiens, UniProt P28223); format: functional, cell-based
[12] = biological target: T6, Neuropeptide Y receptor type 2 (Homo sapiens, UniProt P49146)
T6 sequence (P49146 whole entry): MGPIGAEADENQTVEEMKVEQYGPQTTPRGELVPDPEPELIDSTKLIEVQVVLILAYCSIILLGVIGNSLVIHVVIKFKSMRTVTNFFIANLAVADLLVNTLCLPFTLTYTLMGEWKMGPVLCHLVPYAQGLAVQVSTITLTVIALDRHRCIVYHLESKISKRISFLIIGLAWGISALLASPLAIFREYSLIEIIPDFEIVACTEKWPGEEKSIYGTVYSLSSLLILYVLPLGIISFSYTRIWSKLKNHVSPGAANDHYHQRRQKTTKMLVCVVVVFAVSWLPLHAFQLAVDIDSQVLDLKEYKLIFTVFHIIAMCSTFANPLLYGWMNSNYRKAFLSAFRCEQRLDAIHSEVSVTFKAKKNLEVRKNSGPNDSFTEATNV

[13] = biological target: Delta-type opioid receptor (Homo sapiens, UniProt P41143)
Sequence of Delta-type opioid receptor (P41143 whole entry): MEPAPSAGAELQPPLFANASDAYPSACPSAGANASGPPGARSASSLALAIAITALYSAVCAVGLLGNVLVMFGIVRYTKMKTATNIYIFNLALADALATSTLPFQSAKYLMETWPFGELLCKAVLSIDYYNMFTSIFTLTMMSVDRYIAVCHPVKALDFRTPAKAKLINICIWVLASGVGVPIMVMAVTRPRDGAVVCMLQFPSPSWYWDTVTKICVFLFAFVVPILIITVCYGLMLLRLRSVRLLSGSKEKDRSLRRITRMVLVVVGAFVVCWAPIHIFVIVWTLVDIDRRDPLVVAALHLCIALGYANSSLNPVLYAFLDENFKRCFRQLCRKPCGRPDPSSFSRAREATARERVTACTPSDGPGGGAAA

Mu-type opioid receptor = Mu-type opioid receptor (Homo sapiens, UniProt P35372)
Sequence of Mu-type opioid receptor (P35372 whole entry): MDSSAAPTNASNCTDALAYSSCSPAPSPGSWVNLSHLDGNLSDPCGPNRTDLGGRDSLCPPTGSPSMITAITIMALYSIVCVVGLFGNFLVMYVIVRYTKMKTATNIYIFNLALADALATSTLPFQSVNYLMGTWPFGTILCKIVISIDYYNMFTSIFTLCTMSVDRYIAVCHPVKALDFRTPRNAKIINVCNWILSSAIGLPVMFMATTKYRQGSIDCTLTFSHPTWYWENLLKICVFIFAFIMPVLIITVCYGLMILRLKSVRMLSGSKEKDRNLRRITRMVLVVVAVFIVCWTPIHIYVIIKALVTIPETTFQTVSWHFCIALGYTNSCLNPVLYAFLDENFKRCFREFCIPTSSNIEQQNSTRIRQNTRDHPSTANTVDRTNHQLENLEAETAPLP

D(3) dopamine receptor = D(3) dopamine receptor (Homo sapiens, UniProt P35462)
Sequence of D(3) dopamine receptor (P35462 whole entry): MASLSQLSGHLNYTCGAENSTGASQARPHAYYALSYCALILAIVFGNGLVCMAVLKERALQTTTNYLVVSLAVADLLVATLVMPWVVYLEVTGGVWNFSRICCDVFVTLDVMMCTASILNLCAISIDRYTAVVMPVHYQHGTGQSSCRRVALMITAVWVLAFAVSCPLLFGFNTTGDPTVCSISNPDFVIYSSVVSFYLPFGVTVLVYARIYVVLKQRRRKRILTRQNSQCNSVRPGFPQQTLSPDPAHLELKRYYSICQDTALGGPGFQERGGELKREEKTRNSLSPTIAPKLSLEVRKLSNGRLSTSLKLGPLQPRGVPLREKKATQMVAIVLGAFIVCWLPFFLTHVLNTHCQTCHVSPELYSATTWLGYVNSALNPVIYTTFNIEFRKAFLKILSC

[14] = biological target: T1, Alpha-1A adrenergic receptor; format: functional, cell-based; remark: listed apart in the source
D(1A) dopamine receptor = D(1A) dopamine receptor (Homo sapiens, UniProt P21728)
Sequence of D(1A) dopamine receptor (P21728 whole entry): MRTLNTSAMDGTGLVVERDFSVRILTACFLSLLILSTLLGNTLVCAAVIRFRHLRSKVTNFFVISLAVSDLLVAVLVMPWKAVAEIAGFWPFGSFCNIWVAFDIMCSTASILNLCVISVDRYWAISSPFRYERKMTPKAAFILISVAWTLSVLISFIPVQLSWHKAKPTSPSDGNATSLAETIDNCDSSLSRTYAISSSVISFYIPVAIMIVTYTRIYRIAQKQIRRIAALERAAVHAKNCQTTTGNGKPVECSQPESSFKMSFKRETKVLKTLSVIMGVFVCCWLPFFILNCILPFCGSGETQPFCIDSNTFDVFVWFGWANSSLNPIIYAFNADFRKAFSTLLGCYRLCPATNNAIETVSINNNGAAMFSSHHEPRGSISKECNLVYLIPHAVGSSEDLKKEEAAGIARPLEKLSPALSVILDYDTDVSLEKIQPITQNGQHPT
Further: assay procedure not described here.

Row | Compound | AC50 [1] [µM] | AC50 [2] [µM] | AC50 [3] [µM] | AC50 [4] [µM] | AC50 [5] [µM] | AC50 (Cannabinoid receptor 1 [6]) [µM] | AC50 (Cannabinoid receptor 1 [7]) [µM] | AC50 (Estrogen receptor beta) [µM] | AC50 [8] [µM] | AC50 [9] [µM] | AC50 [10] [µM] | AC50 [11] [µM] | AC50 [12] [µM] | AC50 [13] [µM] | AC50 (Mu-type opioid receptor) [µM] | AC50 (D(3) dopamine receptor) [µM] | AC50 [14] [µM] | AC50 (D(1A) dopamine receptor) [µM]
1 | COc1ccc(C(=O)Nc2ccccc2CCC2CCCCN2C)cc1 (stereo unspecified) [ENCAINIDE] | > 30 | > 30 | > 10 | > 10 | > 10 | > 30 | > 10 | > 30 | > 10 | > 10 | > 10 | > 30 | > 30 | > 30 | > 30 | > 10 | > 30 | > 10
2 | O=[N+]([O-])O[C@@H]1CO[C@H]2[C@@H]1OC[C@@H]2O [ISOSORBIDE MONONITRATE] |  | > 30 | > 10 | > 10 | > 10 |  | > 10 | > 30 | > 10 | > 10 | > 10 |  | > 30 | > 30 | > 30 | > 10 |  | > 10
3 | CCOc1ccccc1OCC1CNCCO1 (stereo unspecified) [VILOXAZINE] | > 30 | > 30 | > 10 | > 10 | > 10 | > 30 | > 10 | > 30 | > 10 | > 10 | > 10 |  | > 30 | > 10 | > 10 | > 10 | > 30 | > 10
4 | COc1cc2nc(N3CCN(C(=O)c4ccco4)CC3)nc(N)c2cc1OC [PRAZOSIN] |  | 7.8 | > 10 | > 10 |  | > 30 | > 10 | > 30 | > 10 |  |  |  | > 30 | > 10 | 4.1 | > 30 |  | > 10
